What was measured:
CD11b^+Ly6G^+ cells = assay: CD11b+Ly6G+ population in bone marrow after CPI-613 injection, flow cytometry; format: in vivo; details: Lal−/− mice, 5 mg/kg on days 0, 2, 4, 7; measured day 8; DMSO control
Experimental: Mice received 5 mg/kg CPI-613 (PDH inhibitor) on days 0, 2, 4, and 7. On day 8, the CD11b^+Ly6G^+ population in the bone marrow was determined by flow cytometry. DMSO (dimethyl sulfoxide) was used as a control.
(§1) Flow Cytometry Analysis For analyses of percentages of CD11b^+Ly6G^+ (integrin alpha M-positive/Ly6G positive) and Ly6G^+Ly6C^+ (Ly6G positive/lymphocyte antigen 6 C1-positive) cells, single cells harvested from the bone marrow of Lal^+/+ and Lal^−/− mice were stained with APC eFluor 780-conjugated, dye, anti-Ly6G antibody (1A8-Ly6g, cat #47-9668-82), FITC (fluorescein isothiocyanate)-conjugated anti-CD11b antibody (M1/70, cat #11-0112-82), and PE (phycocrythrin)-conjugated anti-Ly6C antibody (HK1.4, cat #12-5932-82) at 4° C. for 15 minutes. All antibodies were acquired from eBioscience, San Diego, CA. For analysis of PD-L1 expression in Ly6G^+ cells, cells were stained with APC eFluor 780-conjugated anti-Ly6G antibody, PE-conjugated anti-CD11c (integrin alpha X) antibody (N418, cat #12-0114-82) (acquired from eBioscience), and PE-Cy7 (cyanine 7)-conjugated anti-PD-L1 antibody (10F.9G2, cat #124314) (acquired from Biolegend) at 4° C. for 15 minutes. Cells were washed with PBS, then were ready for flow cytometry analysis.

Ly6G^+ cells = assay: Reactive oxygen species (ROS) measurement in Ly6G+ cells by flow cytometry; format: cell-based, mice; details: CPI-613 treatment; versus Lal+/+ Ly6G+ cells
Experimental: (§2) Isolation of Bone Marrow Lymphocyte Antigen 6 Member G—Positive (Ly6G^+) Cell Ly6G^+ cells were isolated by magnetic bead sorting. For CPI-613 (also known as Devimistat; a pyruvate dehydrogenase inhibitor) treatment, freshly isolated Ly6G^+ cells were pre-treated with DMSO or 10 μM CPI-613 at 37° C. for 1 hour, and then co-cultured with Cluster of Differentiation 4 Protein-positive […] (CD4^+ T cells) or co-injected with B16 melanoma cells for further analysis.
Reactive Oxygen Species (ROS) Measurement The ROS level in Ly6G^+ cells was measured by flow cytometry as previously described. Ly6G^+ cells from Lal^+/+ and Lal^−/− mice with or without CPI-613 pre-treatment were collected and stained with APC eFluor 780-conjugated anti-Ly6G antibody, FITC-conjugated anti-CD11b antibody and 2 μmol/L 2′, 7′-dichlorofluorescein diacetate (acquired from Invitrogen, Carlsbad, CA) at 37° C. for 30 minutes. After PBS washing, the ROS level in Ly6G^+ cells was analyzed using an LSRII machine.
Small Interfering RNA Transfection Before transfection, Ly6G^+ cells were seeded into 96-well plates at a density of 1×10^6 cells/well. […]

CD4^+ T cells = assay: T cell proliferation assay (CFSE-labeled CD4+ T cells co-cultured with pre-treated Ly6G+ cells); format: cell-based, mice; details: Ly6G+ cells pre-treated 10 μM, 1 hour; co-culture 4 days; DMSO control
Experimental: as §2
T cell Proliferation Assay CD4^+ T cells were isolated from the spleen and labeled with carboxyfluorescein succinimidyl ester (CFSE) as previously described. CFSE-labeled CD4^+ T cells were co-cultured with Ly6G^+ cells in 96-well plates pre-coated with anti-CD3 mAb (2 μg/mL) (145-2C11, cat #553057) and anti-CD28 mAb (5 μg/mL) (37.51, cat #553295) (acquired from BD Biosciences) at 37° C., 5% CO2, for 4 days. The ratio of Ly6G^+ cells to CD4^+ T cells was 1:5. Proliferation of CD4^+ T cells was evaluated as CFSE dilution by flow cytometry analysis.

B16 melanoma cells [1] = assay: In vitro co-culture of Ly6G+ cells and B16 melanoma cells; format: cell-based, murine; details: Ly6G+ cells pre-treated 10 μM; co-culture 72 hours
Experimental: (§3) In Vitro Co-Culture of Ly6G^+ and Tumor Cells B16 melanoma or LLC cells were harvested, resuspended, and adjusted to density at 5×10^4 cells/mL. Isolated Ly6G^+ cells with or without 10 μM CPI-613 pre-treatment were prepared at the cell density of 5×10^6 cells/mL. One hundred microliter of Ly6G^+ cells and 100 μL of B16 melanoma/LLC cells were mixed, and seeded into a well of 96-well plates in DMEM supplemented with 10% FBS. Seventy-two hours later, unattached Ly6G^+ cells were removed by washing with PBS, and the number of attached B16 melanoma/LLC cells was counted. Morphologically, Ly6G^+ cells are much smaller than B16 melanoma/LLC cells for exclusion.
(§4) Small Interfering RNA Transfection Before transfection, Ly6G^+ cells were seeded into 96-well plates at a density of 1×10^6 cells/well. For small interfering RNA (siRNA)-mediated gene knockdown, 50 nmol/L of PDH siRNA (containing a mixture of three independent siRNAs targeting different regions of PDH) or control siRNA was transfected into Ly6G^+ cells with DharmaFECT Transfection Reagent I, chemical formulation for transfection, (acquired from Dharmacon) according to the manufacturer's protocol. After 24 hours of transfection, cells were harvested for further analysis.

[2] = test system: Lewis lung carcinoma (LLC) cells; assay: In vitro co-culture of Ly6G+ cells and LLC cells; format: cell-based, murine; details: Ly6G+ cells pre-treated 10 μM; co-culture 72 hours
Experimental: as §3, §4

B16 melanoma cells [3] = assay: Subcutaneous co-injection of pre-treated Ly6G+ cells with B16 melanoma cells, tumor growth; format: in vivo; details: Ly6G+ cells pre-treated 10 μM 1 hour, co-injected with B16 melanoma cells into Lal+/+ recipient mice; tumor size at 10 days
Experimental: Subcutaneous Injection of Tumor Cells into Lal^+/+ Mice To study the effect of Ly6G^+ cells on tumor growth, isolated 1×10^6 Ly6G^+ cells from Lal^+/+ or Lal^−/− mice were pre-treated with DMSO or 10 μM CPI-613 for 1 hour, mixed with 2×10^5 B16 melanoma cells, and the cell mixture was injected subcutaneously at the flank region of Lal^+/+ recipient mice. The tumor growth was monitored twice a weck. The tumor volume (mm^3) was estimated by measuring the maximal length (L) and width (W) of a tumor and calculated using the formula: (length×width^2)/2. For tumor-bearing myeloid-derived suppressor cells (MDSCs) experiments, Lal^+/+ or Lal^−/− mice were injected with 1×10^6 B16 melanoma cells at flank sites on two sides. Fourteen days later, the mice were sacrificed. Tumor tissues were harvested, digested for single cell preparation, and stained for flow cytometry analysis of the CD11b^+Ly6G^+ cells.

PD-L1 = PD-L1 expression in Ly6G+ cells after in vivo CPI-613 treatment, flow cytometry; set-up: species or system mice; details: 5 mg/kg on days 0, 2, 4, 7; day 8; PD-L1+ cells in Ly6G+CD11c+ cells
Experimental: FIG. 3J measures PD-L1^+ cells of Ly6G^+ CD11c^+ cells isolated from Lal^+/+ and Lal^−/− mice. Mice received 5 mg/kg CPI-613 on days 0, 2, 4, and 7. On day 8, the percentage of PD-L1^+ cells in Ly6G^+ CD11c^+ cells was measured by flow cytometry analysis.
as §1

[4] = test system: lysosomal acid lipase (LAL); assay: Human leucocytes incubated with LAL inhibitor, MDSC subsets by flow cytometry; format: cell-based; details: leucocytes from healthy subjects, 10 μM, 24 hours
Experimental: Human leucocytes from healthy individuals were incubated with 10 μM Lalistat2, an LAL inhibitor (L) or DMSO (S) for 24 hours; control group (C) were not treated. After 24 hours, cells were analyzed by flow cytometry.
Human Blood Samples The blood donor characteristics of the human blood samples of normal subjects and non-small-cell lung cancer (NSCLC, at stage III-IV) patients is described in TABLE 8. NSCLC patients were selected by screening with Programmed death-ligand 1 (PD-L1) Tumor Proportion Score (TPS)≥10%. Both normal subjects and NSCLC patients include male and female, White and African American. To inhibit lysosomal acid lipase (LAL) activity, human blood cells from healthy participants had the red blood cells (RBCs) removed with lysis buffer acquired from Biolegend (San Diego, CA); washed with phosphate buffered saline (PBS) by centrifugation at 240×g for 5 minutes at room temperature; and then incubated with 10 μM LAL inhibitor Lalistat2, acquired from Cayman, Ann Arbor, MI) for 24 hours. As a control, human blood cells were incubated with dimethyl sulfoxide (DMSO).
For flow cytometry analysis of human blood samples, human blood cells had the RBCs removed, washed with PBS, and stained with APC-eFluor 780-conjugated anti-CD11b antibody (ICRF44, cat #47-0118-42), FITC-conjugated anti-CD13 (aminopeptidase N) antibody (WM15, cat #11-0138-42), PE-conjugated anti-CD14 antibody (61D3, cat #12-0149-42), APC-conjugated anti-CD15 (Lewis X) antibody (MMA, cat #17-0158-42), PE-conjugated anti-CD33 antibody (HIM3-4, cat #12-0339-42), PE-Cy7-conjugated anti-HLA-DR (major histocompatibility complex, class II) antibody (L243, cat #25-9952-42) (all acquired from eBioscience) at 4° C. for 15 minutes. Cells were then washed with PBS, fixed with 1% paraformaldehyde, and prepared for flow cytometry analysis. To analyze LAL levels, cells were further fixed and permeabilized using BD Cytofix/Cytoperm Fixation/Permeabilization Kit, cell fixation and permeabilization kit, and incubated with non-fluorescence conjugated anti-LAL antibody at 4° C. overnight. […]

SMILES | Lal−/− CD11b+Ly6G+ cells (percentage in bone marrow) (CD11b^+Ly6G^+ cells) | overproduction of ROS in Lal−/− CD11b+Ly6G+ cells (Ly6G^+ cells) | Lal−/− Ly6G+ cells' suppressive activity on T cell proliferation (CD4^+ T cells) | capability of Lal−/− Ly6G+ cells in promoting tumor cell proliferation, B16 melanoma (B16 melanoma cells [1]) | capability of Lal−/− Ly6G+ cells in promoting tumor cell proliferation, LLC [2] | capability of Lal−/− Ly6G+ cells in stimulating tumor growth (B16 melanoma cells [3]) | PD-L1 expression in Lal−/− Ly6G+ cells (PD-L1) | induction of CD11b+CD15+HLA-DR− MDSC subset [4] | percentage of CD11b+CD13+HLA-DR− MDSC subset [4] | percentage of CD11b+CD14+HLA-DR− MDSC subset [4]
O=C(O)CCCCC(CCSCc1ccccc1)SCc1ccccc1 (stereo not shown) [CPI-613] | reduced | significantly reversed | reversed | reduced capabilities | reduced capabilities | reduced capabilities | effectively reduced |  |  | 
O=C(Oc1nsnc1N1CCCCC1)N1CCCCC1 [Lalistat2] |  |  |  |  |  |  |  | did not reach statistical significance | increased | increased

— patent publication US20240299483A1, “TARGETS AND BIOMARKERS FOR TUMOR MICROENVIRONMENTS” (The Trustees of Indiana University, priority 2023, published 2024)
